Tests used:
[1] = Displacement of [3H]ketanserin from 5HT2A receptor in rabbit cerebral cortex membrane; assay type: cell membranes, Oryctolagus cuniculus
[2] = molecular target: T1, 5-hydroxytryptamine receptor 2A (Rattus norvegicus, UniProt P14842); experiment: Displacement of [3H]ketanserin from rat 5HT2A receptor expressed in mouse NIH3T3 cells; assay type: cell-based
[3] = molecular target: T1, 5-hydroxytryptamine receptor 2A; experiment: Displacement of [3H]ketanserin from 5HT2A receptor in rat brain membrane; assay type: cell membranes

T1 sequence (P14842 whole entry): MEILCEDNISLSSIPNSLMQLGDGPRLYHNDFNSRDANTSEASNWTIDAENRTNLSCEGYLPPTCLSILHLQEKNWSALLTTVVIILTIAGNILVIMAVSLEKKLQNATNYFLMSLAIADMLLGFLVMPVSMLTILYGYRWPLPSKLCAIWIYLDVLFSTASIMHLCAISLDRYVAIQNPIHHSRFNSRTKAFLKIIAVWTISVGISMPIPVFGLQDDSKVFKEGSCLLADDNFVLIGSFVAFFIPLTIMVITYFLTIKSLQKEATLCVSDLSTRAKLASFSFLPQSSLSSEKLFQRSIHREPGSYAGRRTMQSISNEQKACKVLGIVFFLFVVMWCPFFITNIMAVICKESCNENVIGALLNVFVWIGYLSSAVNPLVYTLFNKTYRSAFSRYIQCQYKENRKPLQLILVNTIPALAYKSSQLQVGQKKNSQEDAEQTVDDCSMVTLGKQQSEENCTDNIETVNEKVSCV

Compound	Ki [1] [µM]	Ki [2] [µM]	Ki [3] [µM]
C=C1C(=O)O[C@@H]2C3O[C@]3(C)CC/C=C(\C)CC[C@@H]12 (some centres undefined)	230	100	250
CN1C[C@@H](NS(=O)(=O)N(C)C)C[C@@H]2c3cccc4c3c(cn4C)C[C@H]21 [MESULERGINE]	0.0083	–	–

Source: ChEMBL document CHEMBL1145714, “Activity of Parthenolide at 5HT2A receptors” (J Nat Prod, 1997)
